Laboratory results from PubChem BioAssay (NCI).
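Step 1: Grow cells in 96-well plates. Step 2: Expose to compound for 48 hours at 5 concentrations. Step 3: Interpolate endpoints linearly; if unreached, use highest concentration. The concentration for full growth arrest is given as TGI.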

What was measured:
Assay in all cases: NCI anticancer screen, dose series, 48 h
T-47D breast = tested on: T-47D breast
OVCAR-8 ovarian = tested on: OVCAR-8 ovarian
TK-10 renal = tested on: TK-10 renal
A549 NSCLC = tested on: A549 NSCLC
RPMI-8226 leukemia = tested on: RPMI-8226 leukemia
MCF7 breast = tested on: MCF7 breast
UACC-62 melanoma = tested on: UACC-62 melanoma
NCI-H460 lung = tested on: NCI-H460 lung
CCRF-CEM leukemia = tested on: CCRF-CEM leukemia
SNB-19 CNS = tested on: SNB-19 CNS
SK-MEL-2 melanoma = tested on: SK-MEL-2 melanoma

Row | Compound | TGI (T-47D breast) [µM] | TGI (OVCAR-8 ovarian) [µM] | TGI (TK-10 renal) [µM] | TGI (A549 NSCLC) [µM] | TGI (RPMI-8226 leukemia) [µM] | TGI (MCF7 breast) [µM] | TGI (UACC-62 melanoma) [µM] | TGI (NCI-H460 lung) [µM] | TGI (CCRF-CEM leukemia) [µM] | TGI (SNB-19 CNS) [µM] | TGI (SK-MEL-2 melanoma) [µM]
1 | COc1cccc(NCC(=O)Nn2c(-c3ccccc3)nc3ccccc3c2=O)c1 | > 100 | > 100 | > 100 | > 100 | > 100 | > 100 | > 100 | > 100 | > 100 | > 100 | –
2 | N#Cc1c(=O)c2cc([N+](=O)[O-])ccc2n2c1[nH]c1ccccc12 | > 72.7 | > 79.5 | > 100 | > 100 | > 100 | > 86.5 | > 54.1 | > 89.2 | > 100 | > 72.9 | > 69.1
3 | COC1(OC)N=C(N)C2(C#N)C(C)CC(=O)N(N(C)C)C12C#N (centres undefined) | > 100 | > 100 | > 100 | > 100 | > 100 | > 100 | > 100 | – | > 100 | > 100 | > 100
4 | O=C1Oc2ccccc2C(=O)/C1=C/N1C(=O)/C(=C/c2ccc([N+](=O)[O-])cc2)SC1=S | 51.7 | 96.7 | – | > 100 | 42.1 | > 100 | > 100 | 57.8 | > 100 | 79.1 | 82.4
5 | CC(C)CCCC(C)[C@H]1CC[C@H]2[C@@H]3CC[C@H]4C[C@@H](CCC=C(c5cc(Cl)c(O)c(C(=O)OC(C)(C)C)c5)c5cc(Cl)c(O)c(C(=O)OC(C)(C)C)c5)CC[C@]4(C)[C@H]3CC[C@]12C (some centres undefined) | > 50 | – | – | > 50 | > 50 | > 50 | > 50 | – | > 50 | > 50 | > 50
6 | CCOC(=O)CCC(C(=O)OCC)n1nc2ccc(Nc3c(C)[n+]([O-])c4cc(Cl)ccc4[n+]3[O-])cc2n1 (centres undefined) | > 100 | > 100 | > 100 | > 100 | > 100 | > 100 | > 100 | 67.4 | > 100 | > 100 | > 100
7 | CCCCCCCCCCCCCCCCCCNc1ccn(C2OC(COP(=O)(O)O)C(O)C2O)c(=O)n1 (centres undefined) | > 100 | > 100 | > 100 | > 100 | > 100 | > 100 | > 100 | – | > 100 | > 100 | > 100
8 | c1ccc2c(c1)CCc1c-2n(CCN2CCCCC2)c2ccccc12 | 44.5 | 32 | 35.9 | 43.7 | 40.3 | 30.9 | 29.1 | 29.7 | > 100 | 94.5 | 30.2
9 | Oc1[nH]c2ccccc2c1N=NC1=NCCCCN1 | > 100 | > 100 | > 100 | > 100 | > 100 | > 100 | > 100 | > 100 | > 100 | > 100 | > 100
10 | NC(=O)c1n[nH]n(-c2ccccc2)c1=O | > 100 | > 100 | > 100 | > 100 | > 100 | > 100 | > 100 | > 100 | > 100 | > 100 | > 100
11 | Oc1ccc(-c2nc3cc(C(F)(F)F)ccc3n2CC2CCCN3CCCCC23)cc1 (centres undefined) | 47.6 | 29.5 | 30.5 | – | 31.5 | 25.2 | – | 28.3 | 31.8 | – | 27.9
12 | COC(=O)c1ccc2n1C1CC3CC(CC2C3)C1 | > 100 | > 100 | > 100 | > 100 | > 100 | > 100 | > 100 | > 100 | > 100 | > 100 | > 100
13 | CO/N=C1\CCC2(O)C3Cc4ccc(O)c5c4C2(CCN3CC2CC2)[C@H]1O5 (some centres undefined) | > 100 | > 100 | > 100 | > 100 | > 100 | > 100 | > 100 | – | > 100 | > 100 | > 100
14 | Oc1cc(Cl)cc2cc(Br)cnc12 | > 59.6 | > 26.9 | > 100 | > 42.6 | 47.9 | > 29.9 | > 77.6 | > 57.7 | 9.51 | > 100 | –
15 | CC(C)(C)c1cc(-c2ccc(-c3cc(C(C)(C)C)c(O)c(C(C)(C)C)c3)cc2)cc(C(C)(C)C)c1O | > 100 | > 100 | > 100 | > 100 | > 100 | > 100 | > 100 | – | – | > 100 | > 100
16 | COc1ccc(CNc2nc(NCc3ccc(OC)cc3)nc(Nc3ccccc3)n2)cc1 | > 100 | > 100 | > 100 | > 100 | 40.3 | > 100 | > 100 | > 100 | – | > 100 | > 100
17 | C/C(Cl)=N\OC(=O)Nc1ccccc1C(F)(F)F | > 100 | > 100 | 28.8 | > 100 | 45.2 | 61.5 | – | > 100 | 53 | > 100 | > 100
18 | O=c1nc2n(cc1/C=C\Br)C1CC(O)C(CO2)O1 (centres undefined) | > 100 | > 100 | > 100 | > 100 | > 100 | > 100 | > 100 | > 100 | > 100 | > 100 | –
19 | Cc1cc(C)c2c(n1)S(=O)(=O)N(CCCN1CCN(c3cccc(C(F)(F)F)c3)CC1)/C(=C(\O)c1ccccc1)C2=O | > 100 | > 100 | > 100 | > 100 | – | 56.7 | 27.6 | 22.3 | > 100 | > 100 | > 100
20 | COc1cc(/C=C2\N=C(c3ccccc3)N(C3Nc4cc5c(cc4S3)NC(N3C(=O)/C(=C/c4cc(OC)c(OC)c(OC)c4)N=C3c3ccccc3)S5)C2=O)cc(OC)c1OC (centres undefined) | > 100 | > 100 | > 100 | > 100 | 95.1 | > 100 | – | > 100 | – | – | > 100
